Results as given in patent US6375999B1, “Methods for treating potatoes” (priority 1993, dated 2002).

Legend:
[1] = system: freshly dug potatoes; assay: outdoor pile of injured, freshly dug potatoes sprayed with pure 1,4-dimethyl naphthalene; format: in vivo, potato; conditions: outdoors, humidity about 40%, no control sample
From the text: A pile of freshly dug potatoes having considerable injuries such as cuts, scrapes and abrasions were sprayed with pure 1,4-dimethyl naphthalene. The pile was located outdoors with a humidity condition of about 40%. […] Although a control sample wasn't used, potatoes with such a large quantity of cuts, abrasions and the like in an exposed, low humidity environment would typically show minimal healing and a considerable amount of rot.

[2] = system: stored potatoes; assay: low humidity storage after early treatment with 1,4-DMN; format: in vivo, potato; conditions: storage conditions of 85%, and less
From the text: No approved method exists for treating silver scruff. Effective fungicides are not approved for treatment of potatoes. […] A disadvantage of low humidity storage is that such potatoes dehydrate and soften. This causes the potatoes to be less acceptable for certain markets and results in some loss of product.

[3] = system: potatoes which have started to sprout; assay: treatment of potatoes which have started to sprout; format: in vivo, potato; conditions: certain types of potatoes which have started to sprout
From the text: For example, in treating a potato storage facility with liquid sprout inhibitor such as an isomer of DMN, especially the 1,4 and 1,6 isomers of DMN, it is only necessary to have a very low concentration of DMN in the atmosphere inasmuch as the quantity of DMN in a potato is very low so that only very minor quantities of DMN respire or exit the potato. Thus, only a very low partial pressure for DMN is created in a static air space surrounding a potato by respiration. The purpose of DMN in the atmosphere surrounding potatoes is to stop or reduce the exiting of DMN from the potato. Once DMN exiting starts, it is believed that such departure initiates the process which leads to sprouting. […] Thus, in applying liquid sprout inhibitors which are found natively in potatoes it is generally preferred to initiate treatment prior to the onset of sprouting and preferably prior to any considerable exiting of DMN, for example, from the stored potato.
Although, as indicated in the Plant patent, CIPC is not applied until after suberization (wound healing). DMN is preferably applied initially shortly after the potatoes have been put into the facility. […] Also, unlike CIPC, DMN is not a foreign material to a potato.

[4] = system: stored potatoes; conditions: early application to stored potatoes; cited from earlier work

Structure (SMILES)	evidence of rot in injured potatoes ([1]; about two days after spraying)	time after spraying until suberization processes appeared to be complete ([1]; pure compound sprayed)	hydration and firmness of potatoes in low humidity storage [2]	effect on sprouting once sprouting has been initiated [3]	effect on suberization [4]
Cc1ccc(C)c2ccccc12 [1,4-dimethyl naphthalene]	only a small portion of the injured potatoes showing any evidence of rot	two	stay hydrated and firm	–	–
CC(C)OC(=O)Nc1cccc(Cl)c1 [CIPC, Chloroisopropyl-N-carbamate]	–	–	–	generally retard potato sprouting even after sprouting has been initiated	tends to retard suberization
